According to ChEMBL document CHEMBL4177656, “Improving metabolic stability with deuterium: The discovery of GPU-028, a potent free fatty acid receptor 4 agonists” (Bioorg Med Chem, 2017):
Calls of active or inactive are those of the source. The calls are words filed in the database; no cut-off is given here.

Experiments:
[1] = molecular target: T1, Free fatty acid receptor 4 (Homo sapiens, UniProt Q5NUL3); experiment: Agonist activity at human FFAR4 expressed in CHO cells assessed as beta-arrestin recruitment after 90 mins by luminescence assay; format: functional, cell-based
T1 sequence (Q5NUL3 whole entry): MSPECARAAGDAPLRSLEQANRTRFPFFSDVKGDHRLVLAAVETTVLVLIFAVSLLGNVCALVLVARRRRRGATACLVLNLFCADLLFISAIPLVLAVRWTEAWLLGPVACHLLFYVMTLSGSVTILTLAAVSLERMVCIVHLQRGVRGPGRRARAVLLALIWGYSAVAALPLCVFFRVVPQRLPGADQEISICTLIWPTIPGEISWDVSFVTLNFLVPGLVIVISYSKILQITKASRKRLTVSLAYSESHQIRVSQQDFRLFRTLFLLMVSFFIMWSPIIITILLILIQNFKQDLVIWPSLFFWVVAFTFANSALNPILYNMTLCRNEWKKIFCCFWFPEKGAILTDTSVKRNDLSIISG

[2] = AUC (0 to 24 hrs) in Sprague-Dawley rat at 10 mg/kg, po administered as single dose by LC-PDA-MS/MS analysis; format: ADME, organism-based; parameters: time < 24 hr, dose 10 mg/kg, route oral; details: in vivo
[3] = Cmax in Sprague-Dawley rat at 10 mg/kg, po administered as single dose by LC-PDA-MS/MS analysis; format: ADME, organism-based; parameters: dose 10 mg/kg, route oral; details: in vivo
[4] = system: Mus musculus; experiment: Hypoglycemic activity in C57BL/6 DIO mouse model assessed as decrease in blood glucose AUC (0 to 120 mins) at 30 mg/kg administered via gavage twice daily for 28 days measured before glucose challenge by OGTT; format: functional, organism-based; details: tested as the 2H-labelled form
[5] = Clearance in Sprague-Dawley rat at 10 mg/kg, po administered as single dose by LC-PDA-MS/MS analysis; format: ADME, organism-based; details: in vivo
[6] = system: Mus musculus; experiment: Hypoglycemic activity in C57BL/6 DIO mouse model assessed as fasting glucose levels at 30 mg/kg administered via gavage twice daily for 28 days measured on day 29 by OGTT; format: functional, organism-based; details: tested as the 2H-labelled form
[7] = Plasma clearance in rat; format: ADME, organism-based
[8] = system: Mus musculus; experiment: Hypoglycemic activity in C57BL/6 DIO mouse model assessed as decrease in blood glucose AUC (0 to 120 mins) at 30 mg/kg administered via gavage twice daily for 28 days measured on day 29 by OGTT; format: functional, organism-based; details: tested as the 2H-labelled form
[9] = Half life in Sprague-Dawley rat at 10 mg/kg, po administered as single dose by LC-PDA-MS/MS analysis; format: ADME, organism-based; details: in vivo
[10] = system: Mus musculus; experiment: Toxicity in C57BL/6 DIO mouse model at 30 mg/kg administered via gavage twice daily for 28 days; format: organism-based; details: in vivo, po, 672 h

Row | EC50 [1] [µM] | AUC(0-t) at 24 h [2] [ng·h/mL] | Cmax [3] [ng/mL] | CL/F [5] [mL/min/kg] | clearance [7] [mL/min/kg] | half-life [9] [h] | SMILES | Activity [4] | Activity [6] | Activity [8] | Activity [10]
1 | > 10 |  |  |  |  |  | Cc1cc(OCCCS(C)(=O)=O)cc(C)c1-c1cccc(COc2ccc3c(c2)OC[C@H]3CC(=O)O)c1 |  |  |  | 
2 |  | 1370 | 969 | 61.2 | 61.2 | 0.79 | Cc1ccc(-c2ccc(F)cc2COc2ccc(CCC(=O)O)cc2)cc1 | inactive | Active | Active | 
3 |  | 6280 | 2040 | 16.2 |  | 1.66 | [2H]C([2H])(Cc1ccc(OCc2cc(F)ccc2-c2ccc(C)cc2)cc1)C(=O)O |  |  |  | Non-Toxic
